In brackets after ≈: the same amount, converted by molar mass.
How the values were obtained:
Format in all cases: functional
Pseudomonas aeruginosa [1] = assay: Antibacterial activity against Pseudomonas aeruginosa MTCC 424 after 24 hr by broth dilution method; details: MTCC 424, 24 h
Micrococcus luteus = assay: Antibacterial activity against Micrococcus luteus MTCC 1538 after 24 hr by broth dilution method; details: MTCC 1538, 24 h
Bacillus pumilus = assay: Antibacterial activity against Bacillus pumilus MTCC 1456 after 24 hr by broth dilution method; details: MTCC 1456, 24 h
Staphylococcus aureus = assay: Antibacterial activity against Staphylococcus aureus MTCC 1430 after 24 hr by broth dilution method; details: MTCC 1430, 24 h
Bacillus subtilis = assay: Antibacterial activity against Bacillus subtilis MTCC 441 after 24 hr by broth dilution method; details: MTCC 441, 24 h
Pseudomonas fluorescens [2] = assay: Antibacterial activity against Pseudomonas fluorescens MTCC 2421 at 1000 ug/ml after 18 hr by cup-plate method; details: MTCC 2421, 18 h, read-out: DIZ
Pseudomonas fluorescens [3] = assay: Antibacterial activity against Pseudomonas fluorescens MTCC 2421 at 1500 ug/ml after 18 hr by cup-plate method; details: MTCC 2421, 18 h, read-out: DIZ
Pseudomonas fluorescens [4] = assay: Antibacterial activity against Pseudomonas fluorescens MTCC 2421 at 500 ug/ml after 18 hr by cup-plate method; details: MTCC 2421, 18 h, read-out: DIZ
Pseudomonas fluorescens [5] = assay: Antibacterial activity against Pseudomonas fluorescens MTCC 2421 at 200 ug/ml after 18 hr by cup-plate method; details: MTCC 2421, 18 h, read-out: DIZ
Penicillium chrysogenum [6] = assay: Antifungal activity against Penicillium chrysogenum MTCC 161 at 1500 ug/ml after 18 hr by cup-plate method; details: MTCC 161, 18 h, read-out: DIZ
Penicillium chrysogenum [7] = assay: Antifungal activity against Penicillium chrysogenum MTCC 161 at 1000 ug/ml after 18 hr by cup-plate method; details: MTCC 161, 18 h, read-out: DIZ
Penicillium chrysogenum [8] = assay: Antifungal activity against Penicillium chrysogenum MTCC 161 at 500 ug/ml after 18 hr by cup-plate method; details: MTCC 161, 18 h, read-out: DIZ
Penicillium chrysogenum [9] = assay: Antifungal activity against Penicillium chrysogenum MTCC 161 at 200 ug/ml after 18 hr by cup-plate method; details: MTCC 161, 18 h, read-out: DIZ
Penicillium chrysogenum [10] = assay: Antifungal activity against Penicillium chrysogenum MTCC 161 at 100 ug/ml after 18 hr by cup-plate method; details: MTCC 161, 18 h, read-out: DIZ
Aspergillus niger [11] = assay: Antifungal activity against Aspergillus niger MTCC 2546 at 1000 ug/ml after 18 hr by cup-plate method; details: MTCC 2546, 18 h, read-out: DIZ
Aspergillus niger [12] = assay: Antifungal activity against Aspergillus niger MTCC 2546 at 1500 ug/ml after 18 hr by cup-plate method; details: MTCC 2546, 18 h, read-out: DIZ
Aspergillus niger [13] = assay: Antifungal activity against Aspergillus niger MTCC 2546 at 500 ug/ml after 18 hr by cup-plate method; details: MTCC 2546, 18 h, read-out: DIZ
Aspergillus niger [14] = assay: Antifungal activity against Aspergillus niger MTCC 2546 at 100 ug/ml after 18 hr by cup-plate method; details: MTCC 2546, 18 h, read-out: DIZ
Aspergillus niger [15] = assay: Antifungal activity against Aspergillus niger MTCC 2546 at 200 ug/ml after 18 hr by cup-plate method; details: MTCC 2546, 18 h, read-out: DIZ
Escherichia coli [16] = assay: Antibacterial activity against Escherichia coli MTCC 1573 at 1500 ug/ml after 18 hr by cup-plate method; details: MTCC 1573, 18 h, read-out: DIZ
Escherichia coli [17] = assay: Antibacterial activity against Escherichia coli MTCC 1573 at 500 ug/ml after 18 hr by cup-plate method; details: MTCC 1573, 18 h, read-out: DIZ
Escherichia coli [18] = assay: Antibacterial activity against Escherichia coli MTCC 1573 at 1000 ug/ml after 18 hr by cup-plate method; details: MTCC 1573, 18 h, read-out: DIZ
Escherichia coli [19] = assay: Antibacterial activity against Escherichia coli MTCC 1573 at 200 ug/ml after 18 hr by cup-plate method; details: MTCC 1573, 18 h, read-out: DIZ
Escherichia coli [20] = assay: Antibacterial activity against Escherichia coli MTCC 1573 at 100 ug/ml after 18 hr by cup-plate method; details: MTCC 1573, 18 h, read-out: DIZ
Pseudomonas fluorescens [21] = assay: Antibacterial activity against Pseudomonas fluorescens MTCC 2421 at 100 ug/ml after 18 hr by cup-plate method; details: MTCC 2421, 18 h, read-out: DIZ
Pseudomonas aeruginosa [22] = assay: Antibacterial activity against Pseudomonas aeruginosa MTCC 424 at 1500 ug/ml after 18 hr by cup-plate method; details: MTCC 424, 18 h, read-out: DIZ
Pseudomonas aeruginosa [23] = assay: Antibacterial activity against Pseudomonas aeruginosa MTCC 424 at 1000 ug/ml after 18 hr by cup-plate method; details: MTCC 424, 18 h, read-out: DIZ

`O=c1c(/C=N/c2nc[nH]n2)coc2ccccc12` was tested, and the MIC (Pseudomonas aeruginosa [1]) was 300 µg/mL (≈ 1250 µM), the MIC (Micrococcus luteus) was 300 µg/mL (≈ 1250 µM) and the MIC (Bacillus pumilus) was 400 µg/mL (≈ 1670 µM). For the same compound, the MIC (Staphylococcus aureus) was 400 µg/mL (≈ 1670 µM), the MIC (Bacillus subtilis) was 400 µg/mL (≈ 1670 µM) and the zone of inhibition at 1000 µg/mL (Pseudomonas fluorescens [2]) was 19 mm. It also gave a zone of inhibition at 1500 µg/mL (Pseudomonas fluorescens [3]) of 20 mm, a zone of inhibition at 500 µg/mL (Pseudomonas fluorescens [4]) of 17 mm and a zone of inhibition at 200 µg/mL (Pseudomonas fluorescens [5]) of 15 mm. It also gave a zone of inhibition at 1500 µg/mL (Penicillium chrysogenum [6]) of 22 mm, a zone of inhibition at 1000 µg/mL (Penicillium chrysogenum [7]) of 20 mm and a zone of inhibition at 500 µg/mL (Penicillium chrysogenum [8]) of 19 mm. For the same compound, the zone of inhibition at 200 µg/mL (Penicillium chrysogenum [9]) was 17 mm, the zone of inhibition at 100 µg/mL (Penicillium chrysogenum [10]) was 15 mm and the zone of inhibition at 1000 µg/mL (Aspergillus niger [11]) was 20 mm. It also gave a zone of inhibition at 1500 µg/mL (Aspergillus niger [12]) of 22 mm, a zone of inhibition at 500 µg/mL (Aspergillus niger [13]) of 19 mm and a zone of inhibition at 100 µg/mL (Aspergillus niger [14]) of 16 mm. For the same compound, the zone of inhibition at 200 µg/mL (Aspergillus niger [15]) was 18 mm, the zone of inhibition at 1500 µg/mL (Escherichia coli [16]) was 18 mm and the zone of inhibition at 500 µg/mL (Escherichia coli [17]) was 15 mm. For the same compound, the zone of inhibition at 1000 µg/mL (Escherichia coli [18]) was 16 mm, the zone of inhibition at 200 µg/mL (Escherichia coli [19]) was 14 mm and the zone of inhibition at 100 µg/mL (Escherichia coli [20]) was 13 mm. It also gave a zone of inhibition at 100 µg/mL (Pseudomonas fluorescens [21]) of 13 mm, a zone of inhibition at 1500 µg/mL (Pseudomonas aeruginosa [22]) of 20 mm and a zone of inhibition at 1000 µg/mL (Pseudomonas aeruginosa [23]) of 18 mm.
